Laboratory results as given in US5215999A, “Quinoline derivative and antiulcer agent containing said quinoline derivative” (Otsuka Pharmaceutical Co., Ltd., priority 1990, dated 1993).
Counter-ions that a name gives are not always drawn.

Columns and labels:
H^+ +K^+ ATPase = target: T1, H^+ +K^+ ATPase (Sus scrofa, UniProt P19156); experiment: H+ + K+ ATPase inhibitory action; type: biochemical; conditions: pig stomach enzyme, protein 10 μg; pH 7.4, 37° C., 30 minutes
T1 construct: prepared from the stomach of a pig; from tissue; host or cells: pig stomach
Method: (c) H^+ +K^+ ATPase Inhibitory Action
H^+ +K^+ ATPase (adenosinetriphosphatase)(protein: 10 μg) prepared from the stomach of a pig was added to a pipes-Tris [2-amino-2-(hydroxymethyl)-1,3-propandiol] buffer (pipes-Tris buffer)(pH 8.1) containing 2 mM piperazine N,N'-bis(2-ethane sulfonic acid). The resultant reaction solution was allowed to stand at a room temperature. Each of the test compounds was dissolved in dimethyl formamide, which was added to the H^+ +K^+ ATPase buffer such that the final concentration was 1%. The resultant reaction solution was reacted at a room temperature for 30 minutes. In the same manner, another reaction solution was prepared. Respectively added to the reaction solutions were 1 ml of a 75 mM pipes-TRIS buffer (pH 7.4) (containing 4 mM MgCl2, 4 mM Na2 ATP and 20 mM KCl) and 1 ml of a 75 mM pipes-Tris buffer (pH7.4) (containing 4 mM MgCl2 and 4 mM Na2 ATP). Thus, two kinds of samples were prepared and reacted at 37° C. for 30 minutes. Added to each of the samples was 0.3 ml of 40% trichloroacetic acid, thus completing the reaction. After the samples were subjected to centrifugal separation (3,000 rpm) for 10 minutes. The supernatant liquids were taken to produce inorganic phosphoric acids, of which amounts were measured according to a Fiske and Subbarow method [J. Biol. Chem. vol. 86,375 (1925)]. The amount of the inorganic phosphoric acid obtained from the pipes-Tris buffer containing no 20 mM KCl was deducted from the amount of the inorganic phosphoric acid obtained from the pipes-Tris buffer containing 20 mM KCl. The difference expressed in terms of unit protein per unit time was defined as an enzyme active value. The inhibition value (%) of each dosage was obtained from the control value and the enzyme active value at each dosage. Based on the inhibition value thus obtained, IC50 (the dosage of each test compound which achieves inhibition of 50%) was obtained.

stomach-acid secretion = experiment: Stomach-acid secretion inhibitory action on rats (histamine-stimulated, perfused stomach); type: in vivo, Wistar-type male rats; conditions: Rattus norvegicus, iv; 0.3, 1, 3, 10 and 30 mg/kg; histamine dihydrochloride 1 mg/kg/hr; probit method
Method: (a) Stomach-Acid Secretion Inhibitory Action on Rats
After each of Wistar-type male rats was let abstain from food for 24 hours, the pylorus thereof was bound while the rat was paralyzed with urethane (1.5 g/kg s.c.), and a stomach perfusion cannula was inserted into the rat stomach. The rat stomach was perfused with a physiological salt solution through an oral catheter. The amount of stomach-acid secretion was measured by titrating the total acidity and pH of the perfusion solution. As an acid secretion stimulant, 1 mg/kg/hr of histamine dihydrochloride was continuously injected through the femoral vein to accelerate the acid secretion. Then, the effects of a variety of compounds were studied.
Each of test compounds as dissolved in dimethylformamide was intravenously administered to the rat in each of dosages of 0.3, 1, 3, 10 and 30 mg/kg through […].
There was calculated an inhibition percentage of acid secretion with respect to acid secretion before administration of each of the test compounds. An ED50 value was calculated from the inhibition percentage with respect to each dosage according to a probit method.

T1 sequence (P19156 2-1034 limits assumed): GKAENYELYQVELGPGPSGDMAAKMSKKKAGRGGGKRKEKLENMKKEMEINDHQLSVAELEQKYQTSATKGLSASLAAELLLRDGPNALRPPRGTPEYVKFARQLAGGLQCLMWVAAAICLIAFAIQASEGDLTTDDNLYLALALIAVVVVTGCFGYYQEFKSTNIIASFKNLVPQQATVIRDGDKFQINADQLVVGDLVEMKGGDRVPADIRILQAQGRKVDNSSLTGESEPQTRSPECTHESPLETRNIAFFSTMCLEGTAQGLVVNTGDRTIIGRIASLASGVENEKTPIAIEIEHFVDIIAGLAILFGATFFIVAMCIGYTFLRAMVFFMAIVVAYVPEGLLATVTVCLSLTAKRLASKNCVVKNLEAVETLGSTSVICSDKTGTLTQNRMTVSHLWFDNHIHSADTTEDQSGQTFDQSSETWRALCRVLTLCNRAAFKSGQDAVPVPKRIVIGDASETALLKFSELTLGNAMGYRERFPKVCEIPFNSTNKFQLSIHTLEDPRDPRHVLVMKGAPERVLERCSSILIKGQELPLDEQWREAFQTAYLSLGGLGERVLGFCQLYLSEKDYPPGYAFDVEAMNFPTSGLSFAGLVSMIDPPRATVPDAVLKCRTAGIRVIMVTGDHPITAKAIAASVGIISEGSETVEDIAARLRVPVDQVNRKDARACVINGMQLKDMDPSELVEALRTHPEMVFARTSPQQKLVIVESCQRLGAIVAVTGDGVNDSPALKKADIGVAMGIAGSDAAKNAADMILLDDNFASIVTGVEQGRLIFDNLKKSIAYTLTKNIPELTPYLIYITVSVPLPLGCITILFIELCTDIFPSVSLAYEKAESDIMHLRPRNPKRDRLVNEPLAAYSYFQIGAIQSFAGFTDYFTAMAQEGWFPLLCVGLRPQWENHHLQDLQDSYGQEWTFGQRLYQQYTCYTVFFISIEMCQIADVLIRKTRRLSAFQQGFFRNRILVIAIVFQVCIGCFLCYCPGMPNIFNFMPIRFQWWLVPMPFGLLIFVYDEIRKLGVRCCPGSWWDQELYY
T1 sequence (P18434 whole entry partner): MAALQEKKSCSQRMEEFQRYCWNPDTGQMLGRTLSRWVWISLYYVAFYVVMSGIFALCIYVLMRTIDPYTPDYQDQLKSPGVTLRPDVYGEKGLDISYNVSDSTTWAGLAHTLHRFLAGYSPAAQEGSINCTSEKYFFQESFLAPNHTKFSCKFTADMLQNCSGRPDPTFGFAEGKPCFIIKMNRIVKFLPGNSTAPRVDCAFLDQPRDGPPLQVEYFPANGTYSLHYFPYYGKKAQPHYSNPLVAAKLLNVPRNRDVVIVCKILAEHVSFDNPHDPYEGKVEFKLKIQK

Compound	IC50 (H^+ +K^+ ATPase)	ED50 (stomach-acid secretion)
C=CCNC(=O)c1cnc2c(OC)cccc2c1Nc1ccccc1SCCC [Test Compound 5, N-2-propenyl-8-methoxy-4-[(2-propylthiophenyl)amino]quinoline-3-carboxamide hydrochloride]	1600 nM	
C=CCNC(=O)c1cnc2c(OC)cccc2c1Nc1ccccc1C.Cl [Test Compound 1, N-2-propenyl-8-methoxy-4-[(2-methylphenyl)amino]quinoline-3-carboxamide hydrochloride]		6.72 mg/kg
C=CCNC(=O)c1cnc2c(OC)cccc2c1Nc1ccccc1CC [Test Compound 2, N-2-propenyl-4-[(2-ethylphenyl)amino]-8-methoxyquinoline-3-carboxamide hydrochloride]	2200 nM	
C=CCNC(=O)c1cnc2c(OC)cccc2c1Nc1ccccc1C(C)C [Test Compound 3, N-2-propenyl-4-[(2-isopropylphenyl)amino]-8-methoxyquinoline-3-carboxamide hydrochloride]	4900 nM	
